Measured values published in PubChem BioAssay AID2060898 (Molecular Pharmacology Branch, DTP, NCI, 2025).
Where “and” joins values, the source holds several entries; their conditions need not be identical. Equal entries are not always repeated.

System: 616215-338-R-J1-PDC complex spheroid viability
Test: Anticancer human tumor 616215-338-R-J1-PDC patient-derived colon adenocarcinoma cell line growth inhibition [RAS]
Conditions: for viability, T/C: stronger effect = lower value
Source text: RAS pathway inhibitors in Combinations in Complex Spheroids
A high-throughput screen of multi-cell type tumor spheroids was designed to identify active combinations of RAS pathway inhibitors and targeted small molecules. Complex spheroids include a stromal component modeled by human endothelial cells (HUVEC) and fibroblasts modeled by human mesenchymal stem cells (MSCs). The concentration ranges selected for each drug and investigational agent were based upon clinically achievable concentrations if the clinical Cmax of the agent was known.
Compounds. The drugs and investigational agents: abemaciclib (NSC768073), cobimetinib (NSC768068), divarasib (GDC6063, NSC841802), docetaxel (NSC628503), GDC-1971 (RLY-1971, NSC841576), gemcitabine (NSC613327), inavolisib (NSC800729), ipatasertib (NSC767898), KB-0742 (NSC834161), MRTX-1133 (NSC836407), osimertinib (NSC779217), RMC-4630 (NSC839698), RMC-6236 (NSC851965), RMC-6291 (NSC852671), Ro-3306 (NSC812927), sapanisertib (NSC764658), SN-38 (NSC673596), staurosporine (NSC755774), SY5609 (NSC837396), and tovorafenib (DAY101, NSC766906), were obtained from the National Cancer Institute (NCI) Developmental Therapeutics Program Chemical Repository. The FDA-approved anticancer drug set is available from the NCI Developmental Therapeutics Program. […] The stock solutions were prepared in dimethyl sulfoxide (DMSO, Sigma-Aldrich, St. Louis, MO, cat. D2650) at 800-fold the tested concentration and stored at -70 degrees C prior to their use. All drugs and investigational agents were tested over a range starting from a high concentration at or near the clinical Cmax and decreasing in half-log increments. If the clinical Cmax for an agent had not been determined, the highest concentration tested was 10 microM.
Cell Culture. All cells were maintained in an incubator at 37 degrees C and 5% CO2 with 95% humidity. The PDC lines were cultured according to standard operating procedures established by the NCI PDMR. All PDCs were thawed and cultured in Matrigel-coated flasks prepared with a working solution of 1X Ham's F-12 nutrient mix, without supplementation (Invitrogen, Waltham, MA, cat. 11765054), 100 U/mL penicillin-streptomycin (Invitrogen, cat. 15140122), and 2.5% Matrigel (Corning Inc., Corning, NY, cat. 354248) for the first three passages. The 362531-283-R-J2-PDC and 782815-120-R-J1-PDC lines were cultured in 6C/Colon 1B media, which includes advanced DMEM/F-12 (Thermo Fisher Scientific, cat. 12634028), 10 mM HEPES (Thermo Fisher Scientific, cat. 15630080), 1X GlutaMAX supplement (Thermo Fisher Scientific, cat. 35050061), 0.1 mg/mL primocin (InvivoGen, San Diego, CA, cat. ant-pm-2), 10% defined fetal bovine serum, heat inactivated (HyClone Laboratories Inc., Logan, UT, cat. SH30070.03HI), 50% L-WRN conditioned media (ATCC, cat. CRL-3276), 1.25 mM N-Acetyl-L-cysteine (Sigma-Aldrich, cat. A9165), 10 mM nicotinamide (Sigma-Aldrich, cat. N0636), 1X B-27 supplement (Thermo Fisher Scientific, cat. 17504044), 1X N-2 supplement (Thermo Fisher Scientific, cat. 17502048), 50 ng/mL human EGF (Thermo Fisher Scientific, cat. PHG0311), and 10 microM Y-27632 dihydrochloride (Tocris Bioscience, cat. 1254). The K12877-001-R-J1-PDC line was cultured in 6I media, which includes all 6C/Colon 1B media plus 10 ng/mL human FGF-10 (PeproTech, cat. 100-26), 1 ng/mL human FGF-2 (PeproTech, cat. 100-18B), 1 µM prostaglandin E2 (Tocris Bioscience, cat. 2296), […] hydrocortisone (Sigma-Aldrich, cat. H4001), and […] bovine insulin (Sigma-Aldrich, cat. I6634). The K86415-001-R-J1-PDC line was cultured in 6D media, which includes all 6C/Colon 1B media components minus the L-WRN conditioned media. The 485176-168-R4-J1-PDC was cultured in PANC media, which includes all 6C/Colon 1B media plus 100 ng/mL human FGF-10 (PeproTech, cat. 100-26), 500 nM SB-431542 (Selleckchem, cat. S1067), and 10 nM gastrin (Tocris Bioscience, cat. 3006). […]

[1] = curve of first compound, second compound 0.0316 µM
[2] = curve of first compound, second compound 0.1 µM
[3] = curve of first compound, second compound 0.316 µM
[4] = curve of first compound, second compound 1 µM
[5] = curve of first compound, second compound 3.16 µM
[6] = curve of first compound, second compound 10 µM
[7] = second compound 0.0316 µM, first compound 0.00316 µM
[8] = second compound 0.0316 µM, first compound 0.01 µM
[9] = second compound 0.0316 µM, first compound 0.0316 µM
[10] = second compound 0.0316 µM, first compound 0.1 µM
[11] = second compound 0.0316 µM, first compound 0.316 µM
[12] = second compound 0.0316 µM, first compound 1 µM
[13] = second compound 0.1 µM, first compound 0.00316 µM
[14] = second compound 0.1 µM, first compound 0.01 µM
[15] = second compound 0.1 µM, first compound 0.0316 µM
[16] = second compound 0.1 µM, first compound 0.1 µM
[17] = second compound 0.1 µM, first compound 0.316 µM
[18] = second compound 0.1 µM, first compound 1 µM
[19] = second compound 0.316 µM, first compound 0.00316 µM
[20] = second compound 0.316 µM, first compound 0.01 µM
[21] = second compound 0.316 µM, first compound 0.0316 µM
[22] = second compound 0.316 µM, first compound 0.1 µM
[23] = second compound 0.316 µM, first compound 0.316 µM
[24] = second compound 0.316 µM, first compound 1 µM
[25] = second compound 1 µM, first compound 0.00316 µM
[26] = second compound 1 µM, first compound 0.01 µM
[27] = second compound 1 µM, first compound 0.0316 µM
[28] = second compound 1 µM, first compound 0.1 µM
[29] = second compound 1 µM, first compound 0.316 µM
[30] = second compound 1 µM, first compound 1 µM
[31] = second compound 3.16 µM, first compound 0.00316 µM
[32] = second compound 3.16 µM, first compound 0.01 µM
[33] = second compound 3.16 µM, first compound 0.0316 µM
[34] = second compound 3.16 µM, first compound 0.1 µM
[35] = second compound 3.16 µM, first compound 0.316 µM
[36] = second compound 3.16 µM, first compound 1 µM
[37] = second compound 10 µM, first compound 0.00316 µM
[38] = second compound 10 µM, first compound 0.01 µM
[39] = second compound 10 µM, first compound 0.0316 µM
[40] = second compound 10 µM, first compound 0.1 µM
[41] = second compound 10 µM, first compound 0.316 µM
[42] = second compound 10 µM, first compound 1 µM
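Also: spheroids exposed to agents for seven days before viability readout.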
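For viability, T/C in this document: 100% = DMSO vehicle control viability.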

For `CC(=O)OC12COC1CC(O)C1(C)C(=O)C(O)C3=C(C)C(OC(=O)C(O)C(NC(=O)OC(C)(C)C)c4ccccc4)CC(O)(C(OC(=O)c4ccccc4)C21)C3(C)C` (stereo not drawn), the viability, T/C (compound 0.0316 µM) was 27.8% [middle of 4 runs], the viability, T/C (compound 0.1 µM) was 21% [middle of 4 runs] and the viability, T/C (compound 0.316 µM) was 19.1% (2×) and 21.2% and 18.8%. For the same compound, the viability, T/C (compound 1 µM) was 21.3% [middle of 4 runs], the viability, T/C (compound 3.16 µM) was 22.3% [middle of 4 runs] and the viability, T/C (compound 10 µM) was 28.5% [middle of 4 runs]. The IC50 (curve of compound) was less than 31.6 nM.

For `Cc1nc(N2CCC3(CC2)COC(C)C3N)c(CO)nc1Sc1ccnc(N)c1Cl` (stereo not drawn), the viability, T/C (compound 0.0316 µM) was 105% (2×) and 103% and 97.3%, the viability, T/C (compound 0.1 µM) was 103% (2×) and 106% and 97.7% and the viability, T/C (compound 0.316 µM) was 109% [middle of 4 runs]. The viability, T/C (compound 1 µM) was 108% [middle of 4 runs], the viability, T/C (compound 3.16 µM) was 86.9% [middle of 4 runs] and the viability, T/C (compound 10 µM) was 85.4% [middle of 4 runs]. For the same compound, the IC50 (curve of compound) was greater than 10000 nM.

In the case of `NC1c2ccccc2OC12CCN(c1cnc3c(N4CCCc5ncccc54)n[nH]c3n1)CC2` (stereo not drawn), the viability, T/C (compound 0.0316 µM) is reported as 114% [middle of 4 runs], the viability, T/C (compound 0.316 µM) is reported as 92.2% [middle of 4 runs] and the viability, T/C (compound 1 µM) is reported as 76.5% [middle of 4 runs]. The viability, T/C (compound 10 µM) was 55.8% [middle of 4 runs] and the IC50 (curve of compound) was > 10000 nM and 3160 nM and 6760 nM.

In the case of `C=CC(=O)Nc1cc(Nc2nccc(-c3cn(C)c4ccccc34)n2)c(OC)cc1N(C)CCN(C)C` + C#Cc1c(F)ccc2cc(O)cc(-c3ncc4c(N5CC6CCC(C5)N6)nc(OCC56CCCN5CC(F)C6)nc4c3F)c12, the IC50 [1] is reported as greater than 1000 nM, the IC50 [2] is reported as greater than 1000 nM and the IC50 [3] is reported as 846 nM. It also gave an IC50 [4] of 587 nM, an IC50 [5] of 150 nM and an IC50 [6] of 150 nM. The viability, T/C [7] was 101%, the viability, T/C [8] was 109% and the viability, T/C [9] was 101%. The viability, T/C [10] was 106%, the viability, T/C [11] was 98.1% and the viability, T/C [12] was 68.4%. It also gave a viability, T/C [13] of 106%, a viability, T/C [14] of 108% and a viability, T/C [15] of 104%. It also gave a viability, T/C [16] of 110%, a viability, T/C [17] of 115% and a viability, T/C [18] of 74.5%. The viability, T/C [19] was 114%, the viability, T/C [20] was 110% and the viability, T/C [21] was 109%. For the same compound, the viability, T/C [22] was 109%, the viability, T/C [23] was 93.2% and the viability, T/C [24] was 42.7%. The viability, T/C [25] was 112%, the viability, T/C [26] was 109% and the viability, T/C [27] was 117%. For the same compound, the viability, T/C [28] was 82.4%, the viability, T/C [29] was 75.5% and the viability, T/C [30] was 31.4%. It also gave a viability, T/C [31] of 104%, a viability, T/C [32] of 124% and a viability, T/C [33] of 79.8%. For the same compound, the viability, T/C [34] was 59.6%, the viability, T/C [35] was 42.2% and the viability, T/C [36] was 35.9%. It also gave a viability, T/C [37] of 67.2%, a viability, T/C [38] of 71.2% and a viability, T/C [39] of 62.2%. The viability, T/C [40] was 56.5%, the viability, T/C [41] was 39.4% and the viability, T/C [42] was 21.7%.

In the case of `O=C(c1ccc(F)c(F)c1Nc1ccc(I)cc1F)N1CC(O)([C@@H]2CCCCN2)C1` + C#Cc1c(F)ccc2cc(O)cc(-c3ncc4c(N5CC6CCC(C5)N6)nc(OCC56CCCN5CC(F)C6)nc4c3F)c12, the IC50 [1] is reported as 87.7 nM, the IC50 [2] is reported as 75.4 nM and the IC50 [3] is reported as 55.9 nM. The IC50 [4] was 30.5 nM, the IC50 [5] was 19 nM and the IC50 [6] was less than 3.16 nM. The viability, T/C [7] was 112%, the viability, T/C [8] was 98% and the viability, T/C [9] was 83.8%. The viability, T/C [10] was 47.4%, the viability, T/C [11] was 12.5% and the viability, T/C [12] was 5.72%. It also gave a viability, T/C [13] of 114%, a viability, T/C [14] of 112% and a viability, T/C [15] of 85.1%. It also gave a viability, T/C [16] of 39.3%, a viability, T/C [17] of 10% and a viability, T/C [18] of 6.39%. It also gave a viability, T/C [19] of 124%, a viability, T/C [20] of 111% and a viability, T/C [21] of 73.6%. For the same compound, the viability, T/C [22] was 25.3%, the viability, T/C [23] was 13% and the viability, T/C [24] was 5.14%. It also gave a viability, T/C [25] of 115%, a viability, T/C [26] of 96.3% and a viability, T/C [27] of 44.3%. For the same compound, the viability, T/C [28] was 24.3%, the viability, T/C [29] was 8.74% and the viability, T/C [30] was 5.44%. It also gave a viability, T/C [31] of 75.3%, a viability, T/C [32] of 64.9% and a viability, T/C [33] of 36.6%. It also gave a viability, T/C [34] of 23.4%, a viability, T/C [35] of 7.41% and a viability, T/C [36] of 3.17%. The viability, T/C [37] was 48.8%, the viability, T/C [38] was 35.3% and the viability, T/C [39] was 24.3%. It also gave a viability, T/C [40] of 14.4%, a viability, T/C [41] of 1.94% and a viability, T/C [42] of 1.77%.
